The test system of experiment [1] is ISC-enriched organoids in ENR+CD. The experiment can be described thus: 384-well secondary screen in ENR+CD incl. early vs. full treatment, secreted LYZ (LYZ.NS, LYZ.S). Format: cell-based, C57BL/6 mice. To be noted: ENR+CD, across all doses. The text has this: We again assessed treatment effect size with replicate SSMD (using a difference between well replicates and median assay value for all same-plate control wells—see Materials and Methods, High-throughput screening: 384-well secondary screen format and early vs. full treatment analysis) and hits were considered statistically validated by an SSMD greater than the false-positive-derived cutoffs (βα1=0.89 for 8 replicates with alpha=0.05; see Materials and Methods, High-throughput screening: 384-well secondary screen format and early vs. full treatment analysis) for both LYZ.NS and LYZ.S assays (FIG. 7A). Per this new cutoff, 10 dose-treatment combinations corresponding to 7 small molecules were chosen as hits, with every passing dose-treatment having a greater than 0 ATP effect size.
For 384-well plate high-throughput screening, ISC-enriched organoids were passaged and split to single cells with TyrpLE (Thermo Fisher Scientific) and cultured for 2-3 days in ENR+CVY prior to transfer to a “2.5-D” 384-well plate culture system. To prepare for “2.5D” plating, cell-laden Matrigel and media were homogenized via mechanical disruption and centrifuged at 300 g for 3 min at 4° C. Supernatant was removed and the pellet washed and spun in basal culture medium repeatedly until the cloudy Matrigel above the cell pellet was gone. On the final wash, pellet was resuspended in basal culture medium, the number of organoids counted, and the cell pellet was resuspended in ENR+CD medium at ˜7 clusters/μL. 384-well plates were first filled with 10 μL of 70% Matrigel (30% basal media) coating in each well using a Tecan Evo 150 Liquid Handling Deck, and allowed to gel at 37° C. for 5 minutes. Then 30 μL of cell-laden media was plated at the center of each well of 384-well plates with the liquid handler, and the plates were spun down at 50 g for 1 minute to embed organoids on the Matrigel surface. Compound libraries were pinned into prepped cell plates using 50 nL pins into 30 μL media/well. Cells were cultured at 37° C. with 5% CO2 for six days in ENR+CD medium supplemented with the tested compounds with a media change at three days. On day six, lysozyme secretion and cell viability were assessed using Lysozyme Assay Kit (EnzChek) and CellTiter-Glo 3D Cell Viability Assay (Promega), respectively, according to the manufacturers' protocols. Briefly, screen plates were washed 3× with FluoroBrite basal media (2 mM GlutaMAX and 10 mM HEPES in FluoroBrite DMEM (Thermo Fisher Scientific)) using a BioTek 406 plate washer with 10 min incubations followed by a 1 min centrifugation at 200 g to settle media between washes. After removal of the third wash, 30 μL of non-stimulated FluoroBrite basal media was added to each screen well using a Tecan Evo 150 Liquid Handling Deck from a non-stimulated treatment master plate, and plates were incubated for 30 min at 37° C. After 30 minutes, the top 15 μL of media from each well of the screen plate was transferred to a non-stimulated LYZ assay plate containing 15 μL of 20× DQ LYZ assay working solution using a Tecan Evo 150 Liquid Handling Deck. The non-stimulated LYZ assay plate was covered, shaken for 10 min, incubated for 50 min at 37° C., then fluorescence measured (shake 10 s; […]/518 nm) using a Tecan M1000 Plate Reader. After the media transfer to the non-stimulated LYZ assay plate, the remaining media was removed from the screen plate and 30 μL of Stimulated FluoroBrite basal media (supplemented with 10 μM CCh) was added to each screen well using a Tecan Evo 150 Liquid Handling Deck from a stimulated treatment master plate, and plates were incubated for 30 min at 37° C. After 30 minutes, the top 15 μL of media from each well of the screen plate was transferred to a stimulated LYZ assay plate containing 15 μL of 20× DQ LYZ assay working solution using a Tecan Evo 150 Liquid Handling Deck. […]

Experiment [2] deals with conventional organoid (ENR). The experiment can be described thus: 384-well screen in conventional organoid (ENR), secreted LYZ (LYZ.NS, LYZ.S). Format: cell-based, C57BL/6 mice. To be noted: 6-day ENR differentiation compared with ENR+CD.
The subject of experiment [3] is 6-day ENR+CD cells. The experiment can be described thus: Cell pellet ATP after long-term (48-hour) treatment. The class given is cell-based, murine. To be noted: low doses. The text has this: (§1) We next sought to profile potential long-term modulators of differentiated PC survival and antimicrobial secretion, as well as gauge the interaction between long-term modulators and short-term induced secretion (via CCh). To accomplish this, we employed a similar set up as in the short-term experiment, with the exception that upon plating day 4 ENR+CD cells we additionally supplemented in either MDP, LPS, TNF-α, or IFN-γ for the additional 2 days in culture and assayed all conditions for both basal and CCh-induced LYZ secretion over 3 hours on day 6 of differentiation (FIG. 3A). […] Additionally, we see that the long-term addition reduces CCh-induced secretory function relative to the untreated control for all agents (FIG. 3D).
Small intestinal crypts were isolated from C57BL/6 mice of both sexes, aged between three to six months in all experiments. Crypts were then cultured in a Matrigel culture system. Briefly, crypts were resuspended in basal culture medium (Advanced DMEM/F12 with 2 mM GlutaMAX and 10 mM HEPES; Thermo Fisher Scientific) at a 1:1 ratio with Corning™ Matrigel™ Membrane Matrix—GFR (Fisher Scientific) and plated at the center of each well of 24-well plates. Following Matrigel polymerization, 500 μL of small intestinal crypt culture medium (basal media plus 100× N2 supplement, 50×B27 supplement; Life Technologies, 500× N-acetyl-L-cysteine; Sigma-Aldrich) supplemented with growth factors EGF—E (50 ng/mL, Life Technologies), Noggin—N (100 ng/mL, PeproTech) and R-spondin 1—R (500 ng/mL, PeproTech) and small molecules CHIR99021—C (3 μM, LC Laboratories) and valproic acid—V (1 mM, Sigma-Aldrich) was added to each well. ROCK inhibitor Y-27632—Y (10 μM, R&D Systems) was added for the first 2 days of culture. Cells were cultured at 37° C. with 5% CO2, and cell culture medium was changed every other day. After 6 days of culture, crypt organoids were isolated from Matrigel by mechanical dissociation. To expand enriched ISCs (ENR+CV/Y) or Paneth Cells (ENR+CD), organoids were cultured in 24-well plates, suspended in 40 uL 3-D gels (50-50 GFR MATRIGEL®, Basal culture media), with 500 uL of crypt media supplemented with necessary growth factors and small molecules. […]
For 96-well plate high-throughput screening, 4-day differentiated (ENR+CD) cell clusters in 3D Matrigel were transferred to a “2.5-D” 96-well plate culture system. […] On the last repeat, pellet was resuspended in basal culture medium, the number of cell clusters counted, and centrifuged at 300 g for 3 min at 4° C. […] At end time points (following 2 days in culture and 3 hours of stimulation), lysozyme secretion and cell viability were assessed using Lysozyme Assay Kit and CellTiter-Glo 3D Cell Viability Assay (Promega), respectively, according to the manufacturers' protocols. […]

The test system of experiment [4] is 6-day ENR+CD cells. As to the kind of experiment: Long-term (48-hour) modulators of basal and CCh-induced LYZ secretion. The following applies: 48-hour treatment, CCh-induced secretion over 3 hours on day 6. The class given is cell-based, murine.
Text: as §1
Small intestinal crypts were isolated from C57BL/6 mice of both sexes, aged between three to six months in all experiments. Crypts were then cultured in a Matrigel culture system. Briefly, crypts were resuspended in basal culture medium (Advanced DMEM/F12 with 2 mM GlutaMAX and 10 mM HEPES; Thermo Fisher Scientific) at a 1:1 ratio with Corning™ Matrigel™ Membrane Matrix—GFR (Fisher Scientific) and plated at the center of each well of 24-well plates. Following Matrigel polymerization, 500 μL of small intestinal crypt culture medium (basal media plus 100× N2 supplement, 50×B27 supplement; Life Technologies, 500× N-acetyl-L-cysteine; Sigma-Aldrich) supplemented with growth factors EGF—E (50 ng/mL, Life Technologies), Noggin—N (100 ng/mL, PeproTech) and R-spondin 1—R (500 ng/mL, PeproTech) and small molecules CHIR99021—C (3 μM, LC Laboratories) and valproic acid—V (1 mM, Sigma-Aldrich) was added to each well. ROCK inhibitor Y-27632—Y (10 μM, R&D Systems) was added for the first 2 days of culture. Cells were cultured at 37° C. with 5% CO2, and cell culture medium was changed every other day. After 6 days of culture, crypt organoids were isolated from Matrigel by mechanical dissociation. To expand enriched ISCs (ENR+CV/Y) or Paneth Cells (ENR+CD), organoids were cultured in 24-well plates, suspended in 40 uL 3-D gels (50-50 GFR MATRIGEL®, Basal culture media), with 500 uL of crypt media supplemented with necessary growth factors and small molecules. ROCK inhibitor (Y) was added for the first two days of ISC culture following reconstitution from cryopreservation or trypLE passaging to single cells. Cell culture medium was changed every other day. After 4 days of culture in ENR+CV, cell clusters were differentiated to PCs under the ENR+CD condition for 96-well short and long-term screens. For 384-well differentiation screens, 4-day ENR+CV clusters were passaged to single cells using trypLE, replated and expanded another 3 days in 3-D ENR+CVY and then passaged directly into screens.
For 96-well plate high-throughput screening, 4-day differentiated (ENR+CD) cell clusters in 3D Matrigel were transferred to a “2.5-D” 96-well plate culture system. Briefly, cell culture gel and medium were homogenized via mechanical disruption and centrifuged at 300 g for 3 min at 4° C. […] On the last repeat, pellet was resuspended in basal culture medium, the number of cell clusters counted, and centrifuged at 300 g for 3 min at 4° C. […] At end time points (following 2 days in culture and 3 hours of stimulation), lysozyme secretion and cell viability were assessed using Lysozyme Assay Kit and CellTiter-Glo 3D Cell Viability Assay (Promega), respectively, according to the manufacturers' protocols. […]

In the case of `COc1ccc(C2CNC(=O)C2)cc1OC1CCCC1` (centres unmarked) [Rolipram], in experiment [1], the “ATP-normalized LYZ assays (LYZ.NS/ATP, LYZ.S/ATP), early versus full treatment” value is listed as “do not see a trend or significant difference”. Consider `CCc1c(C(=O)C(N)=O)c2c(OCC(=O)O)cccc2n1Cc1ccccc1` [Varespladib], for which the “mean fold change in LYZ.NS/ATP and LYZ.S/ATP (LYZ secretion per cell) in ENR” value in experiment [2] is on record as “minimal effects in the ENR-only system”. Turning to TNF-α, in experiment [3], the “SSMD effect size of increase in cell number (ATP)” value is reported as “weak” and the “change in cell number (ATP rel. to ENR+CD)” value was “apparent increases in cell number”. Besides, in experiment [4], the “effect size of reduction of CCh-induced secretory function relative to untreated control” value was “weak”.
